Assay results from patent US20070259866A1, “Method of Adenovirus, HIV and HPV Prophylaxis” (priority 1999, published 2007).
“Also recorded” adds a separate entry of the source.

Experiments:
[1] = test system: NL-HX-ADA (molecularly cloned macrophage-tropic type of HIV-1); assay: Time course of anti-HIV effect of CTC96 (neutralization vs contact time); assay type: cell-based
Method: • Stock virus: NL-HX-ADA ˜5.5 μg/ml p24 (This is a molecularly cloned macrophage-tropic type of HIV-1). Virus was used to infect cells at 1:4,000 final dilution (˜1.4 ng/ml p24). Stock CTC-96: 10 mg/ml prepared directly in RPMI 1640 Method: Concentrated stock solution of virus was treated for 1 hour with equal volume of medium containing the drug at the indicated concentrations (1:2 dilution). The virus/drug mixture was then diluted 1,000-fold (1:2,000 dilution) and then added to an equal volume of PHA-activated humans PBMCs (1:4,000 final dilution) to allow virus replication to occur. The extent of infection was measured after 4 days by a fluorescent focus assay and compared to that of a control culture not containing any drug.
Using similar conditions as described above, virus was incubated with 0.625 mg/ml CTC96 for the indicated time period before 1,000-fold dilution and addition to cells.
Virus was incubated with four different concentrations of CTC96 for the indicated time periods, and then the extent of inactivation tested as previously described. Numbers in parentheses indicate results obtained in the initial analysis for the lowest dose ([…]) of CTC96.

[2] = Mouse mortality, survival and weight change in the HPV-11 xenograft SCID mouse experiment; assay type: in vivo, scid/scid mice; conditions: for Mouse Status at the end of the Experiment: Alive / Mouse Status at the end of the Experiment: Dead: of 12 mice
From the text: Each experiment was done in quadruplicate. Twelve mice were used in each replicate. For each replicate, the four treatment groups were made of 3 mice (3 animals per cage). Each mouse received under the skin of each flank one HPV-11-infected foreskin fragment. Two foreskin donors were used, one for the fragments implanted under the left flank and a different one for the fragments implanted under the right flank. The HPV-11-infected grafts were left to grow for 12 weeks, while the mice weights were monitored every other week. At the end of the 12 weeks, the animals were sacrificed and the grafts recovered, measured and processed.
Six to 7 week old male scid/scid mice were used
The animals were monitored weekly. They were weighed at the time of grafting, and every other week during the 12 weeks of the experiment.
Animals were to be prematurely euthanitized if during monitoring any of the following criteria were met: • greater than 10% weight loss; • bleeding or bruising; • inability to maintain righting reflex; • inability to move about; • inability to eat or drink; • tumor greater than 30% of the animal's body weight.
The animals were otherwise sacrificed by cervical dislocation 12 weeks after graft implantation. Length, width, and height of the graft were measured and recorded. The graft were then removed and split in at least two parts. One part was fixed in buffered formalin. The other part was either left as is, or subdivided for subsequent analyses in as many fragments as size permitted. These fragments were placed in a sterile labelled vial and frozen in liquid nitrogen before being transferred to a −80° C. freezer.
Those animals dying unexpectedly before the date of the scheduled euthanasia had their grafts measured and fixed in formalin, if body decomposition was not too advanced.

adenovirus = assay: Inhibition of adenovirus infection in 293T cells in vitro; assay type: cell-based
From the text: Compound 96 inhibited adenovirus infection 100% in 293T cells in vitro.

[3] = test system: NL-HX-ADA (macrophage-tropic isolate) Virus; assay: Inactivation of HIV stock by 1 hr drug treatment, then PBMC infection, fluorescent focus assay (NL-HX-ADA); assay type: cell-based, Human Immunodeficiency Virus (HIV); conditions: for Average # infected cells/area / # infected cells/area (~500 cells): 4 days; for # infected cells/area (~500 cells): single area counts
Method: In a study of the prophylactic effects of Compound 96 on Human Immunodeficiency Virus (HIV), virus stock solutions were inactivated by treatment with Compound 96. Stock solutions of viral types NL-HX-ADA having a p24 concentration of 4.1 μg/ml and NL-HX (P122) having a p24 concentration of 3.8 μg/ml were used for the study, along with a stock solution of Compound 96 having a concentration of 20 mg/ml in RPMI media.
Concentrated stock solution of viruses were treated for 1 hr with equal volume of medium containing the drug at the following concentrations:
After the 1 hr treatment period, the virus-drug solutions were diluted 1:1,000 with complete medium, and then mixed with an equal volume of Peripheral Blood Mononucleocyte (PBMC) cells, for a final dilution of virus and drug of 1:4,000.
The infected cultures were then incubated without any washing or other changes in media for 4 days (for the M-tropic NL-HX-ADA type) and 8 days (for the T-tropic NL-HX type). The cultures were then assayed for infection using standard fluorescent focus assays to quantitate infected cells.

[4] = [CTC96] 0.625 μg/ml, contact time 2 minutes
[5] = [CTC96] 0.625 μg/ml, contact time 4 minutes
[6] = [CTC96] 0.625 μg/ml, contact time 8 minutes
[7] = [CTC96] 0.625 μg/ml, contact time 16 minutes
[8] = [CTC96] 0.625 μg/ml, contact time 32 minutes
[9] = [CTC96] 0.625 μg/ml, contact time 64 minutes
[10] = virus treated 1 hr at 0.625 mg/ml
[11] = virus treated 1 hr at 1.25 mg/ml
[12] = virus treated 1 hr at 2.5 mg/ml

## CC1=CC(C)=[N+]2CC[N+]3=C(C)C=C(C)[O][Co-4]23([n+]2cc[nH]c2C)([n+]2cc[nH]c2C)[O]1.[Br-] [Compound 96]
[1]; [4]
  % Neutralization: 15%
  % Neutralization (in parentheses: initial analysis): 7%
[1]; [5]
  % Neutralization: 25%
  % Neutralization (in parentheses: initial analysis): 43%
[1]; [6]
  % Neutralization: 41%
  % Neutralization (in parentheses: initial analysis): 56%
[1]; [7]
  % Neutralization: 56%
  % Neutralization (in parentheses: initial analysis): 64%
[1]; [8]
  % Neutralization: 65%
  % Neutralization (in parentheses: initial analysis): 76%
[1]; [9]
  % Neutralization: 80%
  % Neutralization (in parentheses: initial analysis): 100%
[1]; [CTC96] 1.25 μg/ml, contact time 2 minutes
  % Neutralization: 4%
[1]; [CTC96] 1.25 μg/ml, contact time 4 minutes
  % Neutralization: 17%
[1]; [CTC96] 1.25 μg/ml, contact time 8 minutes
  % Neutralization: 42%
[1]; [CTC96] 1.25 μg/ml, contact time 16 minutes
  % Neutralization: 61%
[1]; [CTC96] 1.25 μg/ml, contact time 32 minutes
  % Neutralization: 78%
[1]; [CTC96] 1.25 μg/ml, contact time 64 minutes
  % Neutralization: 94%
[1]; [CTC96] 2.5 μg/ml, contact time 2 minutes
  % Neutralization: 21%
[1]; [CTC96] 2.5 μg/ml, contact time 4 minutes
  % Neutralization: 25%
[1]; [CTC96] 2.5 μg/ml, contact time 8 minutes
  % Neutralization: 47%
[1]; [CTC96] 2.5 μg/ml, contact time 16 minutes
  % Neutralization: 72%
[1]; [CTC96] 2.5 μg/ml, contact time 32 minutes
  % Neutralization: 86%
[1]; [CTC96] 2.5 μg/ml, contact time 64 minutes
  % Neutralization: 100%
[1]; [CTC96] 5 μg/ml, contact time 2 minutes
  % Neutralization: 37%
[1]; [CTC96] 5 μg/ml, contact time 4 minutes
  % Neutralization: 52%
[1]; [CTC96] 5 μg/ml, contact time 8 minutes
  % Neutralization: 65%
[1]; [CTC96] 5 μg/ml, contact time 16 minutes
  % Neutralization: 78%
[1]; [CTC96] 5 μg/ml, contact time 32 minutes
  % Neutralization: 98%
[1]; [CTC96] 5 μg/ml, contact time 64 minutes
  % Neutralization: 100%
[2]; CTC 96 0.05%
  Mouse Survival, Lower Quartile: 84.00 days
  Mouse Survival, Means: 83.167 days
  Mouse Survival, Median: 84.00 days
  Mouse Survival, Upper Quartile: 84.00 days
  Mouse Weight Changes during the Experiment, Lower Quartile: 12.32%
  Mouse Weight Changes during the Experiment, Means: 13.12%
  Mouse Weight Changes during the Experiment, Median: 14.16%
  Mouse Weight Changes during the Experiment, Upper Quartile: 15.62%
  Mouse Status at the end of the Experiment: Alive: 11
  Mouse Status at the end of the Experiment: Dead: 1
[2]; CTC 96 0.2%
  Mouse Survival, Lower Quartile: 57.50 days
  Mouse Survival, Means: 69.83 days
  Mouse Survival, Median: 84.00 days
  Mouse Survival, Upper Quartile: 84.00 days
  Mouse Weight Changes during the Experiment, Lower Quartile: 11.48%
  Mouse Weight Changes during the Experiment, Means: 15.77%
  Mouse Weight Changes during the Experiment, Median: 11.77%
  Mouse Weight Changes during the Experiment, Upper Quartile: 24.80%
  Mouse Status at the end of the Experiment: Alive: 8
  Mouse Status at the end of the Experiment: Dead: 4
[2]; CTC 96 1%
  Mouse Survival, Lower Quartile: 84.00 days
  Mouse Survival, Means: 84.00 days
  Mouse Survival, Median: 84.00 days
  Mouse Survival, Upper Quartile: 84.00 days
  Mouse Weight Changes during the Experiment, Lower Quartile: 5.926%
  Mouse Weight Changes during the Experiment, Means: 9.96%
  Mouse Weight Changes during the Experiment, Median: 9.00%
  Mouse Weight Changes during the Experiment, Upper Quartile: 12.40%
  Mouse Status at the end of the Experiment: Alive: 12
  Mouse Status at the end of the Experiment: Dead: 0
[2]; all treatment groups, drug used only to inactivate HPV-11 in vitro
  effect on mouse weight gain: no effect
[2]; all treatment groups, drug used only to inactivate HPV-11 in vitro, listed as CTC 96
  effect on mouse mortality (number of deaths, length of survival): no differences among the treatment groups; also recorded: no effect
adenovirus
  inhibited adenovirus infection: 100%
[3]; any drug-treated sample vs control infection (800-1200 infected cells per well)
  reduction in infectivity: ≥ 1,000 fold
[3]; any of the drug-treated samples
  infected cells when the entire well was scanned: No infected cells were detected
[3]; even at the lowest concentration of drug tested (0.625 mg/ml), 1 hr treatment
  inactivation of treated virus: completely inactivated
[3]; [10]
  Average # infected cells/area: 0 cells/area
  # infected cells/area (~500 cells): 0 cells/area
[3]; [11]
  Average # infected cells/area: 0 cells/area
  # infected cells/area (~500 cells): 0 cells/area
[3]; [12]
  Average # infected cells/area: 0 cells/area
  # infected cells/area (~500 cells): 0 cells/area
[3]; virus treated 1 hr at 5 mg/ml
  Average # infected cells/area: 0 cells/area
  # infected cells/area (~500 cells): 0 cells/area
[3]; virus treated 1 hr at 10 mg/ml
  Average # infected cells/area: 0 cells/area
  # infected cells/area (~500 cells): 0 cells/area
